# In patent publication US20110201628A1, “HETEROCYCLIC JAK KINASE INHIBITORS” (priority 2008, published 2011):
# pIC50: −log10 of the molar value.
# Target: T1, C-terminal His6-tagged, recombinant, human JAK2, amino acids 808-end (Homo sapiens, UniProt O60674)
# T1 construct: His6 (C); purchased Upstate Biotechnology MA; host or cells: baculovirus in Sf21 cells
# Test: JAK2 kinase Alphascreen assay (Method 1)
# Format: biochemical
# Conditions: Alphascreen, 150 pM JAK2 enzyme, 5 mM ATP, 80 nM Tyk2 peptide, 60 minutes room temperature; read-out: IC50 Assay (Method 1)
# Experimental: To measure JAK2 kinase activity, a commercially available purified enzyme may be used. […] After incubation of the kinase with a biotinylated substrate and adenosine triphosphate (ATP) for 60 minutes at room temperature, the kinase reaction may be stopped by the addition of 30 mM ethylenediaminetetraacetic acid (EDTA). The reaction may be performed in 384 well microtitre plates and the reaction products may be detected with the addition of streptavidin coated Donor Beads and phosphotyrosine-specific antibodies coated Acceptor Beads using the EnVision Multilabel Plate Reader after an overnight incubation at room temperature. “Tween 20” is a registered trademark of ICI Americas, Inc.
# T1 sequence (O60674 808-1132 limits assumed): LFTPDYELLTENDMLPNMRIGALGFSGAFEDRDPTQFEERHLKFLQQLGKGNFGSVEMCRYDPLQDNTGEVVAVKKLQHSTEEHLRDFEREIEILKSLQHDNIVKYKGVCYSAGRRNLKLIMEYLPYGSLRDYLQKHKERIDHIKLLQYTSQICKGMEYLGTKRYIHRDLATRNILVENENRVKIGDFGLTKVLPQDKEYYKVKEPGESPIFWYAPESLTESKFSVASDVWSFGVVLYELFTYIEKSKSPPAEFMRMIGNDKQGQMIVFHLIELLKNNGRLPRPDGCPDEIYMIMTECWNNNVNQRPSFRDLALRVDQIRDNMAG
row,pIC50,SMILES
1,4.54,"CC(Nc1nc(Nc2cn(C)cn2)c2ccsc2n1)c1ncc(F)cn1 (single isomer, unassigned) [Example 1(a), N^2-[1-(5-Fluoropyrimidin-2-yl)ethyl]-N^4-(1-methyl-1H-imidazol-4-yl)thieno[2,3-d]pyrimidine-2,4-diamine]"
2,> 8.52,"CC(Nc1nc(Nc2cn(C)cn2)c2ccsc2n1)c1ncc(F)cn1 (single isomer, unassigned) [Example 1(b), N^2-[1-(5-Fluoropyrimidin-2-yl)ethyl]-N^4-(1-methyl-1H-imidazol-4-yl)thieno[2,3-d]pyrimidine-2,4-diamine]"
3,6.24,"Cc1nc2c(Nc3cn(C)cn3)nc(NC(C)c3ncc(F)cn3)nc2s1 (single isomer, unassigned) [Example 7(a), N^5-[1-(5-Fluoropyrimidin-2-yl)ethyl]-2-methyl-N^7-(1-methyl-1H-imidazol-4-yl)[1,3]thiazolo[5,4-d]pyrimidine-5,7-diamine]"
4,4.67,"Cc1nc2c(Nc3cn(C)cn3)nc(NC(C)c3ncc(F)cn3)nc2s1 (single isomer, unassigned) [Example 7(b), N^5-[1-(5-Fluoropyrimidin-2-yl)ethyl]-2-methyl-N^7-(1-meth 1-1H-imidazol-4-yl)[1,3]thiazolo[5,4-d]pyrimidine-5,7-diamine]"
5,5.19,"CC(Nc1nc(Nc2cn(C)cn2)c2nccnc2n1)c1ncc(F)cn1 (single isomer, unassigned) [Example 10(a), N^2-[1-(5-Fluoropyrimidin-2-yl)ethyl]-N^4-(1-methyl-1H-imidazol-4-yl)pteridine-2,4-diamine]"
6,6.70,"CC(Nc1nc(Nc2cn(C)cn2)c2nccnc2n1)c1ncc(F)cn1 (single isomer, unassigned) [Example 10(b), N^2-[1-(5-Fluoropyrimidin-2-yl)ethyl]-N^4-(1-methyl-1H-imidazol-4-yl)pteridine-2,4-diamine]"
7,5.19,"CC(Nc1nc(Nc2cn(C)cn2)c2cnn(C)c2n1)c1ncc(F)cn1 (single isomer, unassigned) [Example 11(a), N^6-[1-(5-Fluoropyrimidin-2-yl)ethyl]-1-methyl-N^4-(1-methyl-1H-imidazol-4-yl)-1H-pyrazolo[3,4-d]pyrimidine-4,6-diamine]"
8,> 8.52,"CC(Nc1nc(Nc2cn(C)cn2)c2cnn(C)c2n1)c1ncc(F)cn1 (single isomer, unassigned) [Example 11(b), N^6-[1-(5-Fluoropyrimidin-2-yl)ethyl]1-methyl-N^4-(1-methyl-1H-imidazol-4-yl)-1H-pyrazolo[3,4-d]pyrimidine-4,6-diamine]"
9,5.49,"COCC(Nc1nc(Nc2cn(C)cn2)c2cnn(C)c2n1)c1ncc(F)cc1F (single isomer, unassigned) [Example 13(a)]"
10,> 8.52,"COCC(Nc1nc(Nc2cn(C)cn2)c2cnn(C)c2n1)c1ncc(F)cc1F (single isomer, unassigned) [Example 13(b), N^6-[1-(3,5-Difluoropyridin-2-yl)-2-methoxyethyl]-1-methyl-N^4-(1-methyl-1H-imidazol-4-yl)-1H-pyrazolo[3,4-d]pyrimidine-4,6-diamine]"
11,5.27,"CC(Nc1nc(Nc2cn(C)cn2)c2cnn(C)c2n1)c1ncc(F)cc1F (single isomer, unassigned) [Example 14(a), N^6-[1-(3,5-Difluoropyridin-2-yl)ethyl]-1-methyl-N^4-(1-methyl-1H-imidazol-4-yl)-1H-pyrazolo[3,4-d]pyrimidine-4,6-diamine]"
12,> 8.52,"CC(Nc1nc(Nc2cn(C)cn2)c2cnn(C)c2n1)c1ncc(F)cc1F (single isomer, unassigned) [Example 14(b), N^6-[1-(3,5-Difluoropyridin-2-yl)ethyl]-1-methyl-N^4-(1-methyl-1H-imidazol-4-yl)-1H-pyrazolo[3,4-d]pyrimidine-4,6-diamine]"
13,5.37,"CC(Nc1nc2c(c(Nc3cn(C)cn3)n1)CNC2)c1ncc(F)cn1 (single isomer, unassigned) [Example 18(a), N^2-[1-(5-Fluoropyrimidin-2-yl)ethyl]-N^4-(1-methyl-1H-imidazol-4-yl)-6,7-dihydro-5H-pyrrolo[3,4-d]pyrimidine-2,4-diamine]"
14,6.35,"CC(Nc1nc2c(c(Nc3cn(C)cn3)n1)CNC2)c1ncc(F)cn1 (single isomer, unassigned) [Example 18(b), N^2-[1-(5-Fluoropyrimidin-2-yl)ethyl]-N^4-(1-methyl-1H-imidazol-4-yl)-6,7-dihydro-5H-pyrrolo[3,4-d]pyrimidine-2,4-diamine]"
15,> 8.52,"CC(Nc1nc(Nc2cn(C)cn2)c2ccn(C)c2n1)c1ncc(F)cn1 (single isomer, unassigned) [Example 23(a), N^2-[1-(5-Fluoropyrimidin-2-yl)ethyl]-7-methyl-N^4-(1-methyl-1H-imidazol-4-yl)-7H-pyrrolo[2,3-d]pyrimidine-2,4-diamine]"

# Continued, compound first:
row,SMILES,pIC50
1,"COc1ccc2nc(NC(C)c3ncc(F)cc3F)nc(Nc3cn(C)cn3)c2c1 (racemic) [Example 29, N^2-[1-(3,5-Difluoropyridin-2-yl)ethyl]-6-methoxy-N^4-(1-methyl-1H-imidazol-4-yl)quinazoline-2,4-diamine]",6.30
2,"CC(Nc1nc(Nc2cn(C)cn2)c2ccc(O)nc2n1)c1ncc(F)cc1F (racemic) [Example 35, 2-{[1-(3,5-Difluoropyridin-2-yl)ethyl]amino}-4-[(1-methyl-1H-imidazol-4-yl)amino]pyrido[2,3-d]pyrimidin-7-ol]",8.52
3,"CC(Nc1nc(Nc2cn(C)cn2)c2ccc(Cl)nc2n1)c1ncc(F)cc1F (racemic) [Example 44, 7-Chloro-N^2-[1-(3,5-difluoropyridin-2-yl)ethyl]-N^4-(1-methyl-1H-imidazol-4-yl)pyrido[2,3-d]pyrimidine-2,4-diamine]",8.52
4,"CC(Nc1nc2c(c(Nc3cn(C)cn3)n1)CNCC2)c1ncc(F)cn1 (single isomer, unassigned) [17(a), N^2-[1-(5-Fluoropyrimidin-2-yl)ethyl]-N^4-(1-methyl-1H-imidazol-4-yl)-5,6,7,8-tetrahydropyrido[4,3-d]pyrimidine-2,4-diamine]",6.66
5,"CC(Nc1nc2c(c(Nc3cn(C)cn3)n1)CNCC2)c1ncc(F)cn1 (single isomer, unassigned) [17(b), N^2-[1-(5-Fluoropyrimidin-2-yl)ethyl]-N^4-(1-methyl-1H-imidazol-4-yl)-5,6,7,8-tetrahydropyrido[4,3-d]pyrimidine-2,4-diamine]",5.70
6,"CC(Nc1nc2c(c(Nc3cn(C)cn3)n1)CCC2)c1ncc(F)cn1 (single isomer, unassigned) [Example 8(a), N^2-[1-(5-Fluoropyrimidin-2-yl)ethyl]-N^4-(1-methyl-1H-imidazol-4-yl)-6,7-dihydro-5H-cyclopenta[d]pyrimidine-2,4-diamine]",4.70
7,"CC(Nc1nc2c(c(Nc3cn(C)cn3)n1)CCC2)c1ncc(F)cn1 (single isomer, unassigned) [Example 8(b), N^2-[1-(5-Fluoropyrimidin-2-yl)ethyl]-N^4-(1-methyl-1H-imidazol-4-yl)-6,7-dihydro-5H-cyclopenta[d]pyrimidine-2,4-diamine]",> 8.52
8,"CC(Nc1nc(Nc2cn(C)cn2)c2cccnc2n1)c1ncc(F)cc1F (single isomer, unassigned) [Example 12(a), N^2-[1-(3,5-Difluoropyridin-2-yl)ethyl]-N^4-(1-methyl-1H-imidazol-4-yl)pyrido[2,3-d]pyrimidine-2,4-diamine]",> 8.52
9,"CC(Nc1nc(Nc2cn(C)cn2)c2cccnc2n1)c1ncc(F)cc1F (single isomer, unassigned) [Example 12(b), N^2-[1-(3,5-Difluoropyridin-2-yl)ethyl]-N^4-(1-methyl-1H-imidazol-4-yl)pyrido[2,3-d]pyrimidine-2,4-diamine]",6.33
10,"CC(Nc1nc(Nc2cn(C)cn2)c2cc(F)cnc2n1)c1ncc(F)cn1 (single isomer, unassigned) [Example 38(a), 6-Fluoro-N^2-[1-(5-fluoropyrimidin-2-yl)ethyl]-N^4-(1-methyl-1H-imidazol-4-yl)pyrido[2,3-d]pyrimidine-2,4-diamine]",7.00
11,"CC(Nc1nc(Nc2cn(C)cn2)c2ccc(N3CCOCC3)nc2n1)c1ncc(F)cc1F (single isomer, unassigned) [Example 40(a), N^2-[1-(3,5-Difluoropyridin-2-yl)ethyl]-N^4-(1-methyl-1H-imidazol-4-yl)-7-morpholin-4-ylpyrido[2,3-d]pyrimidine-2,4-diamine]",6.31
12,"CC(Nc1nc(Nc2cn(C)cn2)c2ccc(N3CCOCC3)nc2n1)c1ncc(F)cc1F (single isomer, unassigned) [Example 40(b), N^2-[1-(3,5-Difluoropyridin-2-yl)ethyl]-N^4-(1-methyl-1H-imidazol-4-yl)-7-morpholin-4-ylpyrido[2,3-d]pyrimidine-2,4-diamine]",> 8.52
13,"CC(Nc1nc(Nc2cn(C)cn2)c2ccncc2n1)c1ncc(F)cc1F (single isomer, unassigned) [Example 43(a), N^2-[1-(3,5-Difluoropyridin-2-yl)ethyl]-N^4-(1-methyl-1H-imidazol-4-yl)pyrido[3,4-d]pyrimidine-2,4-diamine]",> 8.52

# Same assay, conditions: IC50 Assay (Method 1)
row,SMILES,pIC50
1,"CC(Nc1nc(Nc2cn(C)cn2)c2cc(F)cnc2n1)c1ncc(F)cn1 (single isomer, unassigned) [Example 38(b), 6-Fluoro-N^2-[1-(5-fluoropyrimidin-2-yl)ethyl]-N^4-(1-methyl-1H-imidazol-4-yl)pyrido[2,3-d]pyrimidine-2,4-diamine]",6.31
